Source: PubChem BioAssay (NCI)
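Briefly, cells in 96-well plates were exposed to five compound concentrations for 48 h, and endpoints were estimated by linear interpolation. GI50 marks 50% less growth. Definition used: TGI = concentration required for complete inhibition of growth.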

Assays:
Test in all cases: NCI tumour cell line growth inhibition, 48 h
[1] = tested on: HOP-18 NSCLC
[2] = tested on: RXF-631 renal
[3] = tested on: DLD-1 colon
[4] = tested on: DMS 273 small cell lung
[5] = tested on: LXFL 529 NSCLC
[6] = tested on: MDA-N
[7] = tested on: XF 498 CNS
[8] = tested on: M19-MEL melanoma

SMILES | TGI [1] [µM] | TGI [2] [µM] | TGI [3] [µM] | TGI [4] [µM] | TGI [5] [µM] | TGI [6] [µM] | TGI [7] [µM] | GI50 [1] [µM] | GI50 [3] [µM] | GI50 [5] [µM] | TGI [8] [µM] | GI50 [6] [µM]
Brc1ccccc2cc(-c3ccccc3)nc1-2 | 13.9 | > 53.3 | 3.74 | 16.4 | 3.25 | 29.4 | 3.44 | – | – | – | – | –
CC(=O)[CH-]C(=O)c1ccccc1.CC(=O)[CH-]C(=O)c1ccccc1.Cl.[O-]c1ccnc2ccccc12.[O-]c1ccnc2ccccc12.[Ti+4] | > 100 | – | > 100 | – | > 100 | – | – | > 100 | > 100 | > 100 | – | –
O=C(NC1CC1)c1c(O)[nH]c(=S)[nH]c1=O | > 100 | > 100 | > 100 | – | > 100 | – | – | – | – | – | > 100 | –
Cc1ccccc1NC(=O)/C(=N\NC(N)=S)C(C#N)c1ccccc1 (stereo not drawn) | > 100 | > 100 | > 100 | > 100 | > 100 | – | – | – | – | – | > 100 | –
CC(=Nc1ccc(N(C)C)cc1)c1ccccc1 | – | – | – | – | – | 52.2 | – | – | – | – | – | –
N#C/C(=C\c1cc(O)c(O)c(O)c1)C(N)=O | – | > 100 | > 100 | > 100 | > 100 | > 100 | > 100 | – | – | – | > 100 | –
C/C(=N\NC(=O)c1ccncc1)c1sc(-n2nc(-c3ccccc3)cc2-c2ccccc2)nc1C | – | – | – | – | – | > 100 | – | – | – | – | – | –
Cc1cccc(C)c1NC(=O)CCC(=O)NC(N)=NC#N | > 100 | > 100 | > 100 | – | > 100 | – | > 100 | – | – | – | > 100 | –
CC1(C)C(N2CCOCC2)CS1(=O)=O (stereo not drawn) | – | – | – | – | – | > 10 | – | – | – | – | – | –
COc1cccc2c1C(=O)c1c(O)c3c(c(O)c1C2=O)C[C@@](O)(C(=O)CO)CC3OC1CC(N)C(OC2CCCCO2)C(C)O1 (stereo partly drawn) | 1.06 | – | 17.8 | 7.18 | 3.14 | 0.362 | 1.47 | – | – | – | – | –
Cc1ccc(S(=O)(=O)OCOS(=O)(=O)c2ccc(C)cc2)cc1 | > 100 | – | > 100 | > 100 | > 100 | – | – | – | – | – | > 100 | –
C[C@]12CC[C@H](O[C@@H]3O[C@H](CO[C@@H]4O[C@H](CO)[C@@H](O)[C@H](O)[C@H]4O)[C@@H](O)[C@H](O)[C@H]3O)C[C@@H]1CC[C@@H]1[C@@H]2CC[C@]2(C)[C@@H](C3=CC(=O)OC3)CC[C@]12O | – | – | – | – | – | 93.5 | – | – | – | – | – | –
Cc1ccc2c(c1)-c1c3c(nn1C)-c1ccccc1SC3O2 (stereo not drawn) | > 100 | – | > 100 | > 100 | > 100 | – | 88.5 | – | – | – | > 100 | –
Cc1cccc(NC(=O)C(=O)C(C2OC(=O)c3ccccc32)[N+](=O)[O-])c1C (stereo not drawn) | 22.3 | 33.7 | 23.1 | 10.3 | 20.3 | – | 18.7 | – | – | – | 3.91 | –
COc1ccc(Oc2nc3cc(N)cc(N)c3nc2-c2ccccc2)cc1 | – | – | – | – | – | > 100 | – | – | – | – | – | 35.2
CCC12C=CCN(CCc3c([nH]c4ccccc34)/C=C\1)C2 (stereo not drawn) | > 100 | > 100 | – | > 100 | > 100 | – | > 100 | – | – | – | > 100 | –
Cc1ccc(N(C=O)c2c([N+](=O)[O-])cc([N+](=O)[O-])c3c2=[N+]([O-])CN=3)cc1 | – | – | – | – | – | > 100 | – | – | – | – | – | –
COc1cc(OCc2ccccc2)c2c(CCC(=O)O)cc(=O)oc2c1 (tested in a mixture with another compound) | – | – | – | – | – | > 100 | – | – | – | – | – | –
Nc1cccc2c1-c1c(cccc1[N+](=O)[O-])C2=O | > 100 | – | > 100 | > 100 | – | – | – | – | – | – | > 100 | –
C[P+]1(Cc2ccccc2)CCCC1 | > 100 | – | > 100 | > 100 | > 100 | – | – | – | – | – | > 100 | –
O=C(O)c1ccc2c(c1)C(=O)N(c1ccc(S(=O)(=O)c3ccc(N4C(=O)c5ccc(C(=O)O)cc5C4=O)cc3)cc1)C2=O | – | – | – | > 100 | > 100 | – | > 100 | – | – | – | > 100 | –
N#Cc1c2ccccc2c(Cc2ccc3c(c2)OCCOCCOCCOCCOCCO3)c2ccccc12 | 21.8 | – | 22 | 17.8 | 30.4 | – | 23.5 | – | – | – | – | –
